Experiments:
NK cells [1] = assay: NK cell-mediated CAR T cell lysis after daratumumab pre-treatment of NK cells (DAPI cell-kill assay); assay type: cell-based, human
Experimental: To determine if daratumumab blunts NK-cell mediated CAR T cell lysis, anti-BCMA CAR T cells were co-cultured with purified NK cells that were pre-treated for 60 hours with either daratumumab or isotype control mAb at concentrations of 0.01, 0.1, or 1 μg/mL (FIG. 13A). At the end of the 60 hour pre-treatment period, 50,000 efluor-labelled anti-BCMA CAR T cells were added to the plate containing 150,000 NK cells and Dara/isotype control, and incubated for an additional 24 hours. At the end of the 24-hour co-culture period, anti-BCMA CAR T cell lysis was measured in a cell-kill assay with DAPI.
Specifically, the anti-BCMA CAR T cells were labeled with 5 μM efluor670 (Cat #65-0840-90; ThermoFisher Scientific), washed and incubated in co-cultures with the NK cells at a 3:1 (NK:T) ratio. The co-culture was incubated 24 hr. After incubation, wells were washed and media was replaced with 150 μL of 1× FACS buffer containing a 1:500 dilution of 5 mg/mL DAPI (Molecular Probes) and 12.5 μL of CountBright beads (C36950; ThermoFisher Scientific).
To determine if 10 μg/mL daratumumab blunts NK-cell mediated CAR T cell lysis, anti-BCMA CAR T cells deficient in B2M were co-cultured with purified NK cells that were pre-treated for 60 hours with either daratumumab or isotype control mAb at concentrations of 0.1, 1 or 10 μg/mL. Briefly, NK cells were plated at 50,000 or 150,000 cells per well and treated with daratumumab or the isotype control at concentrations of 0, 0.1, 1 and 10 μg/mL. After 60 hours of treatment of NK cells with daratumumab, the anti-BCMA CAR T cells were labeled with 5 μM efluor670 (Cat #65-0840-90; ThermoFisher Scientific), washed and seeded at 50,000 cells per well in co-cultures with the daratumumab-treated NK cells to make 1:1 or 3:1 (NK:T) ratio. The co-culture was incubated for further 24 hr. […] The cells were analyzed for cell viability by flow cytometry (i.e., viable cells being negative for DAPI staining) Pre-treatment with daratumumab protected anti-BCMA CAR T cell from NK induced cell lysis in a dose-dependent manner (FIGS. 14B-14C). […]

anti-BCMA CAR T cells [2] = assay: High daratumumab concentrations in NK/CAR T co-culture: CAR T cell numbers; assay type: cell-based, human; settings: up to 300 μg/mL; 72 hours
Experimental: (§1) Daratumumab is prescribed in the clinic at a dose of 16 mg/kg (225 μg/mL equivalent). To determine the effect of daratumumab at high concentrations on NK and CAR T cells, anti-BCMA CAR T cells deficient in B2M were co-cultured with purified NK cells that were pre-treated for 60 hours with either human IgGl^-k or daratumumab, each at concentrations of 0.01, 0.1, 1, 10, 100 or 300 μg/mL using methods as described in the previous examples. Flow cytometry was used to assess NK and CAR T cells numbers 72 hours after co-culturing with pre-treated NK cells using methods as described in the previous examples.

NK cells [3] = assay: Daratumumab in PBMC culture: NK cell frequency and numbers; assay type: cell-based, human
Experimental: Based on the expression levels of CD38 on NK and T cells, the effect of an anti-CD38 antibody, daratumumab (TAB-236, Creative Biolabs), on such cells was assessed. […] The effect of 10% complement on the cell cultures was also tested. Untreated cells and cells treated with 0.01, 0.1 or 1 μg/mL isotype control mAb (human IgG1k) (cat #403501, BioLegend) were used as controls. After 96 hours of culture, NK and T cell frequency and numbers were measured.

multiple myeloma = settings: third-line or fourth-line therapy; approximate; cited from earlier work
NK cells [4] = assay: High daratumumab concentrations in NK/CAR T co-culture: NK cell numbers; assay type: cell-based, human; settings: 72 hours
Experimental: as §1

anti-BCMA CAR T cells [5] = assay: Daratumumab on anti-BCMA CAR T cell numbers, frequency and activation; assay type: cell-based, human
Experimental: To assess whether daratumumab treatment affects CAR T cells with a disrupted β2M gene, anti-BCMA CAR T cells generated in Example 1 were treated with daratumumab with or without 10% complement. After a 72 hour culture period, anti-BCMA CAR T cell numbers and frequency were measured in a flow cytometry assay as described in Example 3 (FIGS. 12A-12B).
To determine if higher concentrations of daratumumab (10 μg/mL) activates CAR T cells and causes subsequent proliferation or activation-induced cell death, anti-BCMA CAR T cells deficient in B2M were cultured with daratumumab at concentrations of 0.1, 1 or 10 μg/mL for 24 hours. Untreated cells or anti-BCMA CAR T cells deficient in B2M treated with IgG1k isotype control mAb were used as controls.

MM.1S tumors = assay: Daratumumab plus anti-BCMA CAR-T cells in subcutaneous MM.1S xenograft model; assay type: in vivo, NOG mice; settings: high dose 2.4×10^6 CAR+ T cells iv day 0; daratumumab 15 mg/kg IP twice weekly
Experimental: The effect of combining daratumumab with anti-BCMA CAR-T cell treatment was tested in a subcutaneous MM.1S xenograft model in immunocompromised NOG mice (NOD.Cg-Prkdc^scidIl2rg^tm1Sug/JicTac). In brief, 5 to 8-week old female NOG mice were individually housed in ventilated microisolator cages and maintained under pathogen-free conditions. The animals each received a subcutaneous inoculation in the right flank of 5×10^6 MM.1S cells in 50% Matrigel. When the mean tumor volume reached 150 mm^3 (approximately 125 to 175 mm^3), the mice were randomized into groups with 5 mice per group. Tested groups included an untreated arm, daratumumab only treatment, anti-BCMA CAR-T cell only treatment (low dose or high dose), and anti-BCMA CAR-T cell (low dose or high dose) in combination with daratumumab. Anti-BCMA CAR-T cells were dosed by intravenous injection of 0.8×10^6 (low dose) or 2.4×10^6 (high dose) CAR^+ T cells at day 0. Daratumumab was dosed IP at 15 mg/kg, twice weekly, starting 2 days prior to anti-BCMA CAR-T cell dosing.
Tumor volume and body weights were measured twice weekly and individual mice were euthanized when their tumor volume reached ≥2000 mm^3.

[6] = human, in vivo; cited from earlier work
T cells = assay: Daratumumab in PBMC culture: T cell frequency and numbers; assay type: cell-based, human; settings: 0.01, 0.1 or 1 μg/mL, 96 hours
Experimental: Based on the expression levels of CD38 on NK and T cells, the effect of an anti-CD38 antibody, daratumumab (TAB-236, Creative Biolabs), on such cells was assessed. PBMCs from a healthy donor were cultured for 96 hours in media containing 0.01, 0.1, or 1 μg/mL of daratumumab. The effect of 10% complement on the cell cultures was also tested. Untreated cells and cells treated with 0.01, 0.1 or 1 μg/mL isotype control mAb (human IgG1k) (cat #403501, BioLegend) were used as controls. After 96 hours of culture, NK and T cell frequency and numbers were measured.

## daratumumab: fully human IgGκ monoclonal antibody that targets CD38
NK cells [1]; 1:1 NK:T ratio, 0.1 μg/mL, 60 hours pre-treatment
  protective effect against anti-BCMA CAR T cell lysis: 91%
NK cells [1]; 3:1 NK:CAR T ratio, 1 μg/mL, 60 hours pre-treatment
  protection from NK cell lysis: 85%
NK cells [1]; NK cells pre-treated 60 hours at 0.01, 0.1 or 1 μg/mL, 3:1 NK:T, 24 hr co-culture
  anti-BCMA CAR T cell lysis by pre-treated NK cells: reduced anti-BCMA CAR T cell lysis in a dose-dependent manner
anti-BCMA CAR T cells [2]
  BCMA CAR T cell numbers: unaffected by the high daratumumab concentrations
NK cells [3]; 1 μg/mL, 96 hours
  reduction of NK cell numbers: approximately 75%
NK cells [3]; 0.01, 0.1 or 1 μg/mL, 96 hours
  NK cell frequency and numbers: dose-dependent decrease of NK cell frequency and numbers
NK cells [3]; PBMCs from a different donor, 72 hours
  reduction of NK cell numbers: ~57%
NK cells [3]; addition of 10% complement
  complement dependence of NK cell reduction: not complement dependent
Multiple myeloma
  historical ORR: ~30%
NK cells [4]; 1 μg/mL
  decrease in NK cells: 29%
NK cells [4]; 300 μg/mL
  further decrease in NK cells: 38%
anti-BCMA CAR T cells [5]
  activation of CAR T cells: did not induce activation of CAR T cells
anti-BCMA CAR T cells [5]; 10 μg/mL, 24 hours
  B2M deficient CAR T cell numbers: did not significantly reduce B2M deficient CAR T cells numbers
anti-BCMA CAR T cells [5]; 72 hour culture, with or without 10% complement
  anti-BCMA CAR T cell numbers or frequency: did not affect anti-BCMA CAR T cells numbers or frequency
MM.1S tumors
  mean tumor volume at day 26: 1475 mm^3
[6]
  hepatitis B reactivation: 1%
  herpes zoster reactivation: 2%
T cells
  T cell numbers or frequency: did not affect T cell numbers or frequency

From patent US20220202859A1, “CANCER TREATMENT USING CD38 INHIBITOR AND/OR LENALIDOMIDE AND T-CELLS EXPRESSING A CHIMERIC ANTIGEN RECEPTOR” (CRISPR THERAPEUTICS AG, priority 2020, published 2022)
